The test system of the assay is CD2F1 mice, AMSA-resistant P388 leukemia ip, median survival T/C. Put plainly: NCI In Vivo Anticancer Drug Screen. Data for tumor model P388 Leukemia resistant to AMSA; NSC 249992 (intraperitoneal) in CD2F1 (CDF1) mice. The note with it: endpoint: median survival time, higher = longer survival. The procedure:
The antitumor activity of compounds was measured in mice bearing transplantable tumors. Survival or tumor size were measured and the results are expressed as the measurement made in the treated group (T) divided by the measurement made in the vehicle treated control group (C). The tumor model used in this assay is P388 Leukemia resistant to AMSA; NSC 249992 (intraperitoneal) in CD2F1 (CDF1) mice

Where “and” joins values, the source holds several entries; their conditions need not be identical. Equal values may be shown once. Toxic doses and inconclusive results are not listed.

`O=C1c2c(O)ccc(O)c2C(=O)c2c(NCCNCCO)ccc(NCCNCCO)c21`: the T/C is 110 % of control (dose: 1.3 mg/kg/injection, schedule: Q04DX002 (ip), vehicle: water); 157 % of control (dose: 3.6 mg/kg/injection, schedule: Q04DX003 (ip), vehicle: saline); 96 % of control (dose: 6.0 mg/kg/injection, schedule: Q04DX002 (ip), vehicle: water); 96 % of control and 123 % of control (dose: 6.0 mg/kg/injection, schedule: Q04DX003 (ip), vehicle: saline); 89 % of control (dose: 10.0 mg/kg/injection, schedule: Q04DX002 (ip), vehicle: water).

On to `COc1cc([C@@H]2c3cc4c(cc3[C@@H](OC3OC5COC(C)OC5C(O)C3O)[C@H]3COC(=O)[C@H]23)OCO4)cc(OC)c1O` (stereo partly drawn), for which the T/C is 124 % of control (dose: 6.24 mg/kg/injection, schedule: Q04DX003 (ip), vehicle: water); 118 % of control (dose: 17.3 mg/kg/injection, schedule: Q04DX003 (ip), vehicle: water); 103 % of control (dose: 18.0 mg/kg/injection, schedule: Q04DX003 (ip), vehicle: Klucel (hydroxypropylcellulose) (HPC)); 91 % of control (dose: 27.0 mg/kg/injection, schedule: Q04DX003 (ip), vehicle: Klucel (hydroxypropylcellulose) (HPC)); 167 % of control (dose: 28.8 mg/kg/injection, schedule: Q04DX003 (ip), vehicle: clinical formulation); 162 % of control (dose: 28.8 mg/kg/injection, schedule: Q04DX003 (ip), vehicle: water). In addition, the T/C is 108 % of control (dose: 48.0 mg/kg/injection, schedule: Q04DX003 (ip), vehicle: water) and 87 % of control (dose: 60.0 mg/kg/injection, schedule: Q04DX003 (ip), vehicle: Klucel (hydroxypropylcellulose) (HPC)).

With `COc1cc(NS(C)(=O)=O)ccc1Nc1c2ccccc2nc2ccccc12`, the T/C is, setting by setting: (dose: 1.56 mg/kg/injection, schedule: Q04DX003 (ip), vehicle: other) 93 % of control; (dose: 2.33 mg/kg/injection, schedule: Q01DX001 (ip), vehicle: other) 111 % of control; (dose: 2.59 mg/kg/injection, schedule: Q01DX001 (ip), vehicle: other) 105 % of control; (dose: 2.59 mg/kg/injection, schedule: Q04DX001 (ip), vehicle: other) 105 % of control; (dose: 2.59 mg/kg/injection, schedule: Q04DX002 (ip), vehicle: other) 111 % of control and 116 % of control; (dose: 2.59 mg/kg/injection, schedule: Q04DX003 (ip), vehicle: clinical formulation) 106 % of control. In addition, the T/C is, setting by setting: (dose: 2.59 mg/kg/injection, schedule: Q04DX003 (ip), vehicle: other) 98 % of control and 100 % of control and 106 % of control; (dose: 2.59 mg/kg/injection, schedule: Q04DX003 (ip), vehicle: water) 98 % of control and 100 % of control and 104 % of control; (dose: 3.89 mg/kg/injection, schedule: Q01DX001 (ip), vehicle: other) 109 % of control; (dose: 4.32 mg/kg/injection, schedule: Q01DX001 (ip), vehicle: other) 105 % of control; (dose: 4.32 mg/kg/injection, schedule: Q04DX001 (ip), vehicle: other) 105 % of control; (dose: 4.32 mg/kg/injection, schedule: Q04DX002 (ip), vehicle: other) 117 % of control and 120 % of control. Also, the T/C was 123 % of control (dose: 4.32 mg/kg/injection, schedule: Q04DX003 (ip), vehicle: clinical formulation); 91 % of control and 101 % of control and 108 % of control (dose: 4.32 mg/kg/injection, schedule: Q04DX003 (ip), vehicle: other); 100 % of control and 101 % of control and 105 % of control (dose: 4.32 mg/kg/injection, schedule: Q04DX003 (ip), vehicle: water); 104 % of control (dose: 6.48 mg/kg/injection, schedule: Q01DX001 (ip), vehicle: other); 101 % of control (dose: 7.2 mg/kg/injection, schedule: Q01DX001 (ip), vehicle: other); 101 % of control (dose: 7.2 mg/kg/injection, schedule: Q04DX001 (ip), vehicle: other). Further, the T/C by setting is: (dose: 7.2 mg/kg/injection, schedule: Q04DX002 (ip), vehicle: other) 101 % of control and 114 % of control; (dose: 7.2 mg/kg/injection, schedule: Q04DX003 (ip), vehicle: clinical formulation) 124 % of control; (dose: 7.2 mg/kg/injection, schedule: Q04DX003 (ip), vehicle: other) 97 % of control and 110 % of control and 89 % of control; (dose: 7.2 mg/kg/injection, schedule: Q04DX003 (ip), vehicle: water) 102 % of control and 107 % of control and 113 % of control; (dose: 10.0 mg/kg/injection, schedule: Q04DX003 (ip), vehicle: saline with Tween-80) 120 % of control; (dose: 10.8 mg/kg/injection, schedule: Q01DX001 (ip), vehicle: other) 100 % of control. Further, the T/C runs as follows: (dose: 12.0 mg/kg/injection, schedule: Q01DX001 (ip), vehicle: other) 99 % of control; (dose: 12.0 mg/kg/injection, schedule: Q04DX001 (ip), vehicle: other) 99 % of control; (dose: 12.0 mg/kg/injection, schedule: Q04DX002 (ip), vehicle: other) 119 % of control and 120 % of control; (dose: 12.0 mg/kg/injection, schedule: Q04DX003 (ip), vehicle: other) 90 % of control and 103 % of control (2×); (dose: 12.0 mg/kg/injection, schedule: Q04DX003 (ip), vehicle: water) 102 % of control; (dose: 18.0 mg/kg/injection, schedule: Q01DX001 (ip), vehicle: other) 110 % of control. For the same molecule, the T/C is, setting by setting: (dose: 20.0 mg/kg/injection, schedule: Q01DX001 (ip), vehicle: other) 90 % of control; (dose: 20.0 mg/kg/injection, schedule: Q04DX001 (ip), vehicle: other) 90 % of control; (dose: 20.0 mg/kg/injection, schedule: Q04DX002 (ip), vehicle: other) 92 % of control and 111 % of control; (dose: 20.0 mg/kg/injection, schedule: Q04DX003 (ip), vehicle: other) 106 % of control; (dose: 30.0 mg/kg/injection, schedule: Q01DX001 (ip), vehicle: other) 105 % of control.

Turning to `CCC1(O)CC(OC2CC(N(C)C)C(OC3CC4OC5CC(=O)C(C)OC5OC4C(C)O3)C(C)O2)c2c(cc3c(c2O)C(=O)c2c(O)ccc(O)c2C3=O)C1C(=O)OC` (stereo not drawn), the T/C (dose: 0.64 mg/kg/injection, schedule: Q04DX003 (ip), vehicle: water) was 108 % of control; the T/C (dose: 0.86 mg/kg/injection, schedule: Q04DX003 (ip), vehicle: water) was 112 % of control; the T/C (dose: 1.08 mg/kg/injection, schedule: Q04DX003 (ip), vehicle: water) was 107 % of control; the T/C (dose: 1.44 mg/kg/injection, schedule: Q04DX003 (ip), vehicle: water) is 115 % of control; the T/C (dose: 1.8 mg/kg/injection, schedule: Q04DX003 (ip), vehicle: water) is 117 % of control; the T/C (dose: 2.4 mg/kg/injection, schedule: Q04DX003 (ip), vehicle: water) is 124 % of control. Moreover, under “dose: 5.0 mg/kg/injection, schedule: Q04DX003 (ip), vehicle: water”, the T/C is 113 % of control.

For `NCCCCS(=O)(=O)Nc1ccc(Nc2c3ccccc3nc3cc([N+](=O)[O-])ccc23)cc1`, the T/C runs as follows: (dose: 38.9 mg/kg/injection, schedule: Q04DX003 (ip), vehicle: water) 93 % of control; (dose: 64.8 mg/kg/injection, schedule: Q04DX003 (ip), vehicle: water) 93 % of control; (dose: 108.0 mg/kg/injection, schedule: Q04DX003 (ip), vehicle: water) 95 % of control.

With `CCCCCCCC(=O)OCC(=O)[C@]1(O)Cc2c(O)c3c(c(O)c2[C@@H](OC2CC(N)C(O)C(C)O2)C1)C(=O)c1c(OC)cccc1C3=O` (stereo partly drawn), for the setting “dose: 13.3 mg/kg/injection, schedule: Q04DX003 (ip), vehicle: water”, the T/C was 102 % of control.

In the case of `COC(=O)[C@@H]1c2cc3c(c(O)c2[C@@H](OC2OC(C)C(OC)C(C)(OC)C2OC)C[C@]1(C)O)C(=O)c1c(O)cc2c(c1C3=O)O[C@H]1O[C@]2(C)[C@H](O)[C@@H](N(C)C)[C@@H]1O` (stereo partly drawn), the T/C reads like this: (dose: 0.43 mg/kg/injection, schedule: Q04DX003 (ip), vehicle: water) 108 % of control; (dose: 0.52 mg/kg/injection, schedule: Q04DX003 (ip), vehicle: clinical formulation) 107 % of control; (dose: 0.72 mg/kg/injection, schedule: Q04DX003 (ip), vehicle: water) 113 % of control; (dose: 0.86 mg/kg/injection, schedule: Q04DX003 (ip), vehicle: clinical formulation) 114 % of control; (dose: 1.2 mg/kg/injection, schedule: Q04DX003 (ip), vehicle: water) 107 % of control; (dose: 1.44 mg/kg/injection, schedule: Q04DX003 (ip), vehicle: clinical formulation) 112 % of control. Also, the T/C is 118 % of control (dose: 2.0 mg/kg/injection, schedule: Q04DX003 (ip), vehicle: water); 110 % of control (dose: 2.4 mg/kg/injection, schedule: Q04DX003 (ip), vehicle: clinical formulation); 97 % of control (dose: 3.33 mg/kg/injection, schedule: Q04DX003 (ip), vehicle: water).
